What was measured:
[1] = Serum stability at 37 °C by radio-HPLC; format: in vitro ADME, rat; conditions: rat serum, ice-cold acetonitrile precipitation
Protocol: ^18F-FPBT (∼3.0 MBq) in 5% ethanol in PBS (200 μL) containing sodium ascorbate (0.01 mg/mL) was incubated with rat serum (200 μL) at 37 °C for 1 min or 1 h. Subsequently, plasma proteins were precipitated from the supernatant with ice-cold acetonitrile (1.5 mL), and samples were centrifuged (3 min, 13 000 rpm). The residual activity in the pellet was <3%. The supernatant (∼2.0 MBq, 1.0 mL) was analyzed by radio-HPLC. HPLC method: ZORBAX column (300SB-C18, semipreparative 9.4 mm × 250 mm, 5 μm) using acetonitrile and water as the mobile phase, at a flow rate of 3.0 mL/min. The following gradient was used: from 50% to 90% acetonitrile in 15 min; kept at 90% acetonitrile for 10 min; from 90 to 50% acetonitrile in 5 min.
^18F-FBPT-Ox (2–4 MBq, 50 μL in 10% EtOH/PBS) was added to serum (500 μL) and incubated at 37 °C for 5, 15, and 30 min, respectively. Plasma proteins were precipitated with a 5-sulfosalicylic acid water solution (10% w/v, 1 mL) and centrifuged (3 min, 13 000 rpm). The supernatant was removed and diluted with 500 μL of DI H2O and analyzed via radio-HPLC. A control experiment was performed where ^18F-FBPT-Ox (2 MBq, 50 μL in 10% EtOH/PBS) was added to 500 μL of PBS, incubated at 37 °C for 30 min. A 5-sulfosalicylic acid water solution (10% w/v, 1 mL) was added, thoroughly mixed, then diluted with 500 μL of DI H2O, and analyzed via radio-HPLC. […]

[2] = Reactivity of 18F-FPBT to reactive oxygen species: tert-butoxy radical; conditions: 100 μM, 5 min
Protocol: (§1) ^18F-FPBT (0.5–2.0 MBq) was reacted with potassium superoxide (source of superoxide, 1 mg), hydrogen peroxide (100 μM), Fenton-reaction-generated hydroxyl radicals (100 μM), iron(II) sulfate heptahydrate (100 μM), tert-butyl hydroperoxide (100 μM), tert-butoxy radical (100 μM), and 3-morpholinosydnomine (source of peroxynitrite (100 μM)) for 5 min or diethylamine NONOate (source of nitric oxide, 100 μM) for 30 min at room temperature, after which it was subjected to radio-HPLC analysis and % oxidation was calculated.

[3] = Reactivity of 18F-FPBT to reactive oxygen species: hydrogen peroxide; conditions: 100 μM, 5 min
Protocol: as §1

[4] = Ex vivo biodistribution in doxorubicin-treated and control rats after PET; design: species or system Wistar rats; conditions: for Ex vivo biodistribution, Blood / Ex vivo biodistribution, Bone / Ex vivo biodistribution, Heart / Ex vivo biodistribution, Kidney / Ex vivo biodistribution, Large Intestine / Ex vivo biodistribution, Liver / Ex vivo biodistribution, Lung / Ex vivo biodistribution, Muscle / Ex vivo biodistribution, Small Intestine / Ex vivo biodistribution, Spleen / Ex vivo biodistribution, Urine: 40 min post-injection
Protocol: Male Wistar rats (280–300 g) were used in all experiments. Subcutaneous 7 day osmotic pumps (Alzet), containing either doxorubicin (Cambridge Bioscience, 30 mg/kg cumulative dose) or vehicle (sterile 0.9% NaCl), were inserted into rats under 2% isoflurane in 100% oxygen.
Wistar rats that had received either doxorubicin treatment (male, 267 ± 19 g, n = 6) or saline (male, 303 ± 9 g, n = 4) via osmotic pumps for 7 days were injected with ^18F-FPBT (2.6 ± 1.5 MBq) via the tail vein on the PET/CT scanner bed. The time of injection coincided with the beginning of PET acquisition in order to obtain dynamic tracer uptake information. PET scans with the chest area in the field of vision were acquired for 30 min, followed by a CT scan, after which the animals were sacrificed and organs harvested, weighed, and gamma-counted as for the biodistribution protocol. The hearts were frozen in liquid nitrogen for gamma counting and oxidative stress biomarker assays. The PET data was reconstructed into three frames: 0–3 min, 3–10 min, and 10–30 min. For the time–activity curve, the PET data was reconstructed into 1 min per frame in the first 5 min and then 5 min per frame between 5 and 30 min. Using VivoQuant software (v3.0, inviCRO, LLC, Boston, USA), regions of interest (ROIs) were drawn in the left ventricle and blood inside the myocardium. Radioactivity uptake in the heart was calculated as a standard uptake value ratio (SUVR) between left ventricle and blood. Data are reported as mean ± SD. Statistical analysis was performed using one-way ANOVA with Tukey’s multiple comparisons test.

[18F]CCCN1c2ccccc2SC1c1ccccc1 (centres unmarked) [^18F-FPBT, 3-(3-[^18F]Fluoropropyl)-2-phenyl-2,3-dihydrobenzo[d]thiazole]
Residual activity in the pellet after protein precipitation [1]: < 3%
Oxidation by tert-butoxy radical [2]: no oxidation was observed
Reactivity to hydrogen peroxide [3]: some reactivity
Post-mortem heart uptake in doxorubicin-treated animals, in words ([4]; 30 min post IV injection): did not show an increased uptake
Ex vivo biodistribution, Blood ([4]; Doxorubicin group, n = 6): 0.08 ± 0.06 % ID/g
Ex vivo biodistribution, Bone ([4]; Doxorubicin group, n = 6): 0.30 ±0.13 % ID/g
Ex vivo biodistribution, Heart ([4]; Doxorubicin group, n = 6): 0.43 ± 0.08 % ID/g
Ex vivo biodistribution, Kidney ([4]; Doxorubicin group, n = 6): 0.41 ± 0.14 % ID/g
Ex vivo biodistribution, Large Intestine ([4]; Doxorubicin group, n = 6): 1.42 ±2.07 % ID/g
Ex vivo biodistribution, Liver ([4]; Doxorubicin group, n = 6): 0.73 ± 0.24 % ID/g
Ex vivo biodistribution, Lung ([4]; Doxorubicin group, n = 6): 0.31 ± 0.12 % ID/g
Ex vivo biodistribution, Muscle ([4]; Doxorubicin group, n = 6): 0.10 ± 0.04 % ID/g
Ex vivo biodistribution, Small Intestine ([4]; Doxorubicin group, n = 6): 2.23 ± 1.43 % ID/g
Ex vivo biodistribution, Spleen ([4]; Doxorubicin group, n = 6): 0.15 ± 0.07 % ID/g
Ex vivo biodistribution, Urine ([4]; Doxorubicin group, n = 6): 12.5 ± 5.33 % ID/g
Ex vivo biodistribution, Blood ([4]; Saline group, n = 4): 0.07 ± 0.02 % ID/g
Ex vivo biodistribution, Bone ([4]; Saline group, n = 4): 0.25 ± 0.22 % ID/g
Ex vivo biodistribution, Heart ([4]; Saline group, n = 4): 0.42 ± 0.17 % ID/g
Ex vivo biodistribution, Kidney ([4]; Saline group, n = 4): 0.42 ± 0.19 % ID/g
Ex vivo biodistribution, Large Intestine ([4]; Saline group, n = 4): 0.38 ± 0.20 % ID/g
Ex vivo biodistribution, Liver ([4]; Saline group, n = 4): 0.65 ± 0.13 % ID/g
Ex vivo biodistribution, Lung ([4]; Saline group, n = 4): 0.29 ± 0.05 % ID/g
Ex vivo biodistribution, Muscle ([4]; Saline group, n = 4): 0.08 ± 0.02 % ID/g
Ex vivo biodistribution, Small Intestine ([4]; Saline group, n = 4): 3.33 ± 3.38 % ID/g
Ex vivo biodistribution, Spleen ([4]; Saline group, n = 4): 0.11 ± 0.02 % ID/g
Ex vivo biodistribution, Urine ([4]; Saline group, n = 4): 5.25 ± 3.05 % ID/g
